Where a SMILES comes first, the peptide text is derived from it.
Tests used:
N-His Ich-1 [1] = biological target: T1, N-His Ich-1 (Homo sapiens, UniProt P42575); assay: In vitro proteolysis assay with chromogenic para-nitroaniline-labeled peptide substrate (absorbance 405 nm); type: biochemical
T1 construct: contains Ich-1 amino acid residues 167-435, with an initiator and polyhistidine tag fused to the amino terminus; initiator (Met) + polyhistidine tag (N); made in house
T1 sequence (P42575 184-333): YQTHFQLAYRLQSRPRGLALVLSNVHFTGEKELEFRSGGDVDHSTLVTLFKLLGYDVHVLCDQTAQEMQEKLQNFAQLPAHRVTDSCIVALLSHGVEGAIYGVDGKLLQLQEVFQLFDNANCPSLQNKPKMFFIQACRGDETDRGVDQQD
T1 sequence (P42575 334-452): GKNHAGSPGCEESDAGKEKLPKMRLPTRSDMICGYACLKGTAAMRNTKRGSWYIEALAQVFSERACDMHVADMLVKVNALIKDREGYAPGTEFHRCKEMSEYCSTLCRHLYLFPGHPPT
From the text: To identify peptide substrates for Ich-1, candidate peptides were used in in vitro proteolysis assays with recombinant Ich-1 protein. Human Ich-1 enzyme (the nucleotide and amino acid sequences for which are disclosed in Wang, L., et al. (1994) Cell 78:739-750) was expressed recombinantly with an N-terminal polyhistidine tag by methods described in Kamens, J., et al. (1995) J. Biol. Chem. 270:15250-15256. The resulting enzyme, called N-His Ich-1, contains Ich-1 amino acid residues 167-435, with an initiator and polyhistidine tag fused to the amino terminus. […]
A peptidic aldehyde inhibitor of Ich-1 was designed based upon the optimal peptide substrate (Peptide 43) described in Example 3. […] The ability of this peptidic aldehyde inhibitor to inhibit N-His Ich-1 activity was determined in in vitro proteolysis assays using a chromogenic para-nitroaniline-labeled peptide substrate. […]
To perform the proteolysis assay, N-His Ich-1 was preincubated for 30 minutes at 30° C. in 160 μl of a reaction buffer containing 100 mM sodium acetate (pH 6.2), 20% (v/v) glycerol, 5 mM DTT, 0.5 mM EDTA, […]. […] The incubation of N-His Ich-1 with the peptide substrate at 30° C. was continued, and the catalytic hydrolysis of peptide substrate was monitored by the change in absorbance of the samples at 405 nm due to release of pNA as a function of time. […]

N-His Ich-1 [2] = biological target: T1, N-His Ich-1; assay: In vitro proteolysis assay: cleavage of candidate peptide substrates by N-His Ich-1 (reverse phase HPLC); type: biochemical; conditions: Tables 1-3
From the text: To identify peptide substrates for Ich-1, candidate peptides were used in in vitro proteolysis assays with recombinant Ich-1 protein. Human Ich-1 enzyme (the nucleotide and amino acid sequences for which are disclosed in Wang, L., et al. (1994) Cell 78:739-750) was expressed recombinantly with an N-terminal polyhistidine tag by methods described in Kamens, J., et al. (1995) J. Biol. Chem. 270:15250-15256. The resulting enzyme, called N-His Ich-1, contains Ich-1 amino acid residues 167-435, with an initiator and polyhistidine tag fused to the amino terminus. The recombinant N-His Ich-1 protein was purified by metal chelating column chromatography as described in Porath, J. (1992) Protein Expression and Purification 3:263-281.
Candidate peptide substrates were synthesized by standard solid phase methods and were purified to ≥95% by reverse-phase chromatography. Peptide identities were confirmed by mass spectrometry. Each peptide was acetylated at the amino-terminus and amidated at the carboxy-terminus. The amino acid sequence of each peptide included at least one Trp or Tyr residue. Stock solutions of each peptide were prepared in dimethylsulfoxide (DMSO) at approximately 10 mM. The precise concentration of each stock solution was determined in duplicate as described in Edelhoch, H. (1967) Biochemistry 6:1948-1954. Dilutions of each stock solution to 500 μM were prepared and stored at -20° C. prior to use in enzyme assays.
To determine the substrate specificity of Ich-1, Vmax /Km values for various candidate peptide substrates were compared using experimental procedures modeled after those of Howard, A., et al. (1991) J. Immunol. 147:2964-2969. Enzyme reaction mixtures (810 μL) were prepared containing: 100 mM sodium acetate (pH 6.2), 20% (v/v) glycerol, 5 mM dithiothreitol, 0.5 mM EDTA and approximately 15 μg N-His Ich-1. These mixtures were capped and preincubated for 30 minutes at 30° C. Candidate peptide substrates were added from 500 μM DMSO stocks to give final concentrations of 10 μM peptide and 2% (v/v) DMSO. The reaction mixtures were then capped and incubation was continued at 30° C. At 10 minute intervals for 60 minutes beginning at t=0, aliquots of 110 μL were removed from each reaction mixture and added to vials containing 11 μL of a solution of 3 M HCl in water to stop the enzyme reaction. Samples were stored at room temperature prior to analysis.
Samples were analyzed by reverse phase HPLC using a 250×4.6 mm C18 reverse phase column (Vydak, Hesperia, Calif.) and a linear gradient of MeCN--H2 O with 0.1% (v/v) TFA. The area under the substrate peaks (arbitrary units) was plotted vs. time of reaction for each substrate and fit into an equation of the form: [formula]
wherein S0 is substrate peak area at time=0, St is substrate peak area at time=t, e is a constant approximately equal to 2.718, k is the first order rate constant formally equal to Vmax /Km and t is time. […] Alternatively, results can be expressed as percent substrate cleavage after a fixed time of reaction.

N-His Ich-1 [3] = assay: 100 mM sodium acetate (pH 6.2), 20% (v/v) glycerol, 5 mM dithiothreitol, 0.5 mM EDTA and approximately 15 μg N-His Ich-1; conditions: Human, 30° C., up to 60 minutes
N-His Ich-1 [4] = assay: reaction buffer containing 100 mM sodium acetate (pH 6.2), 20% (v/v) glycerol, 5 mM DTT, 0.5 mM EDTA, at pH 7.5; conditions: Human, 30° C.

| not cleaved (N-His Ich-1 [3]) | Molecule | cleavage by N-His Ich-1 (in words) (N-His Ich-1 [2]) | other results |
| --- | --- | --- | --- |
| – | CC(=O)N[C@H](C(=O)N[C@@H](CC(=O)O)C(=O)N[C@H](C(=O)N[C@@H](C)C(=O)N[C@H](C=O)CC(=O)O)C(C)C)C(C)C [Ac-VDVAD-CHO, acetyl-Val-Asp-Val-Ala-Asp-CHO] (Ac-VDVAD-aldehyde) | – | IC50 (N-His Ich-1 [1]; 500 μM pNA substrate, inhibitor 0.1 nM to 10 μM, sigmoidal fit): 8 nM; Ki (N-His Ich-1 [1]; calculated from IC50, [S] and Km, read-out: apparent Ki): 2.5 nM |
| – | CC(=O)N[C@H](C(=O)N[C@@H](CO)C(=O)N[C@@H](CCC(N)=O)C(=O)N[C@@H](CCC(N)=O)C(=O)N[C@@H](CC(=O)O)C(=O)NCC(=O)N[C@@H](Cc1c[nH]c2ccccc12)C(N)=O)C(C)C [Peptide 22, acetyl-VSQQDGW-amide] (Ac-VSQQDGW-NH2) | tolerated, but is cleaved at a substantially lower efficiency than P4 Asp | – |
| – | CC(=O)N[C@H](C(=O)N[C@@H](CCC(=O)O)C(=O)N[C@@H](CCC(N)=O)C(=O)N[C@@H](CCC(N)=O)C(=O)N[C@@H](CC(=O)O)C(=O)NCC(=O)N[C@@H](Cc1c[nH]c2ccccc12)C(N)=O)C(C)C [Peptide 23, acetyl-VEQQDGW-amide] (Ac-VEQQDGW-NH2) | not tolerated | – |
| – | CC(=O)N[C@H](C(=O)N[C@@H](C)C(=O)N[C@@H](CCC(N)=O)C(=O)N[C@@H](CCC(N)=O)C(=O)N[C@@H](CC(=O)O)C(=O)NCC(=O)N[C@@H](Cc1c[nH]c2ccccc12)C(N)=O)C(C)C [Peptide 24, acetyl-VAQQDGW-amide] (Ac-VAQQDGW-NH2) | relatively poor cleavage | – |
| – | CC(=O)N[C@H](C(=O)N[C@@H](CC(N)=O)C(=O)N[C@@H](CCC(N)=O)C(=O)N[C@@H](CCC(N)=O)C(=O)N[C@@H](CC(=O)O)C(=O)NCC(=O)N[C@@H](Cc1c[nH]c2ccccc12)C(N)=O)C(C)C [Peptide 25, acetyl-VNQQDGW-amide] (Ac-VNQQDGW-NH2) | not tolerated | – |
| – | CC(=O)N[C@H](C(=O)N[C@@H](CC(=O)O)C(=O)N[C@@H](CCC(N)=O)C(=O)N[C@@H](Cc1ccc(O)cc1)C(=O)N[C@@H](CC(=O)O)C(=O)NCC(=O)N[C@@H](Cc1c[nH]c2ccccc12)C(N)=O)C(C)C [Peptide 40, acetyl-VDQYDGW-amide] (Ac-VDQYDGW-NH2) | poorly cleaved compared to the most preferred peptides | – |
| – | CC(=O)N[C@H](C(=O)N[C@@H](CC(=O)O)C(=O)N[C@@H](CCC(N)=O)C(=O)N[C@@H](CCC(=O)O)C(=O)N[C@@H](CC(=O)O)C(=O)NCC(=O)N[C@@H](Cc1c[nH]c2ccccc12)C(N)=O)C(C)C [Peptide 41, acetyl-VDQEDGW-amide] (Ac-VDQEDGW-NH2) | poorly cleaved compared to the most preferred peptides | – |
| – | CC(=O)N[C@H](C(=O)N[C@@H](CC(=O)O)C(=O)N[C@@H](CCC(N)=O)C(=O)N[C@@H](CCC(N)=O)C(=O)N[C@@H](CCC(=O)O)C(=O)NCC(=O)N[C@@H](Cc1c[nH]c2ccccc12)C(N)=O)C(C)C [Peptide 42, acetyl-VDQQEGW-amide] (Ac-VDQQEGW-NH2) | modest cleavage | – |
| 1% cleavage after 60 minute reaction | Ac-GEDMQDNSGTYW-NH2 | – | – |
| 0% cleavage after 60 minute reaction | Ac-HSLDNKDGPVW-NH2 | – | – |
| 0% cleavage after 60 minute reaction | Ac-NEAYVHDAPVRSLY-NH2 | – | – |
| – | Ac-RGVDQQDGKNHW-NH2 | – | cleaved bond (N-His Ich-1 [3]): Asp7-Gly |
| 0% cleavage after 60 minute reaction | Ac-WGDEVDGVDEVW-NH2 | – | – |
| 0% cleavage after 60 minute reaction | Ac-YSDQMDGFHDSW-NH2 | – | – |
| – | acetyl-Val-Asp-Val-Ala-Asp-para-nitroaniline | – | cleaved bond (N-His Ich-1 [4]): Asp-pNA |

— patent US6288037A (BASF Aktiengesellschaft, priority 1996, dated 2001)
